According to patent publication US20120088803A1, “CONTROL AGENT FOR SOFT ROT AND CONTROL METHOD FOR THE SAME” (Ishihara Sangyo Kaisha, Ltd, priority 2009, published 2012):

Tested on: Erwinia carotovora (potato Erwinia carotovora)
Assay: Test for growth inhibition of potato Erwinia carotovora (PSA medium plate)
Type: cell-based
Settings: for Growing state of Erwinia carotovora (formed colonies): PSA medium, 25 degrees C., 4 days, two plates per cell
Experimental: Reference test example: Test for growth inhibition of potato Erwinia carotovora
A test for growth inhibition of Erwinia carotovora in the case of direct application of the control agent to Erwinia carotovora was performed. To previously melted PSA medium (55 degrees C.), a predetermined amount of a pesticide 3-chloro-N-(3-chloro-5-trifluoromethyl-2-pyridyl)-alpha,alpha,alpha-trifluoro-2,6-dinit ro-p-toluidine (fluazinam, Frowncide SC (trade name), manufactured by Ishihara Sangyo Kaisha, Ltd.), ethaboxam wettable powder (Ethaboxam, Gardian (trade name), manufactured by LG Chemical), or streptomycin (Mycin wettable powder (trade name), manufactured by Hokko Chemical Industry Co., Ltd.) and a suspension of Erwinia carotovora (potato Erwinia carotovora) were added and the resulting mixture was stirred well, and then, poured in a plate. Then, the plate was cultured at 25 degrees C. for 4 days, and the growing state of Erwinia carotovora was examined. Thereafter, the formed colonies were examined according to the following three criteria. • +: Equal to the colonies of the untreated group • Plus or minus: Apparently less than the colonies of the untreated group • −: Almost no colonies

For `CCNc1nc(CC)c(C(=O)NC(C#N)c2cccs2)s1` (stereo not shown) [Ethaboxam WP, ethaboxam], the “Growing state of Erwinia carotovora (formed colonies)” value (shortened to “Growing state of Erwinia carotovora”) (Active ingredient concentration 100 ppm) was “+, +”, the “Growing state of Erwinia carotovora” value (Active ingredient concentration 500 ppm) was “+, +” and the “Growing state of Erwinia carotovora” value (Active ingredient concentration 1000 ppm) was “+, +”. The “Growth inhibition of Erwinia carotovora (in words)” value (active ingredient concentration of 1000 ppm, direct application) was “did not inhibit the growth”.
